Assay results published in patent publication US7468255B2, “Method for assaying for natural killer, cytotoxic T-lymphocyte and neutrophil-mediated killing of target cells using real-time microelectronic cell sensing technology” (ACEA Biosciences, priority 2002, dated 2008).

Key:
[1] = test system: various cell types (listed in Table 1); assay: RT-CES profiling of dynamic cell responses to anti-cancer drugs; assay type: cell-based; details: for cell index curve pattern: cell lines of Table 1
Description: FIGS. 10A and B show the responses of various cell types (listed in Table 1) to olomoucine treatment as monitored using a cell-substrate imepdnace monitoring system of the presnet invention. The cellular responses were continuously monitored at 15 or 30 or 60 minutes time interval before and after treatment with olomoucine. […] Take the treatment of olomoucine at 100 uM as an example. […] The “near-constant” cell index curves were also observed for cells treated with roscovitine, which is another compound causing cell cycle arrest. The cell index curves shown in FIGS. 10A and 10B are strikingly different from the cell index curves shown in FIGS. 9A and 9B, and FIGS. 11A and 11B, where compounds follow different mechanism of compound action.
The cellular responses were continuously monitored at 15 or 30 or 60 minutes time interval before and after treatment with doxorubicin. […] Take the treatment of doxoorubincin at 3.13 uM as an example. For most of cell types tested, initially after the treatment, cell index increased with time in similar way to the cell index from DMSO control wells. After 10-20 hrs, depending on cell type, the cell index reached a peak and started decreasing with time. From that time on, the cell index monotonically decreases. […] Both Doxorubicin and 5-Fluorouacil act on cells through effects on DNA replication or topology.
The cellular responses were continuously monitored at 15 or 30 or 60 minutes time interval before and after treatment with paclitaxel. […] Take the treatment of palitaxel at 0.78-12.5 nM range as examples. […] For one particular cell index curve, after the cell index reached a minimum, it then reversed its decreasing trend and started to increase. […] All these compounds—i.e., paclitaxel, vinblastin and colcemid, are so called mitotic poisons and follow similar mechanism of drug action. For example, both vinblastin and paclitaxel act on microtubule dynamics within a cell.
In this study, we used the RT-CES system to dynamically monitor cancer cell responses to chemotherapeutic compounds with characterized mechanisms, and to profile the specific cell response patterns. Thirteen cancer cell lines including cancers of breast, prostate, lung, colon, ovary, kidney, fibroblast, and central nervous system were tested (Table 1). Each cancer cell type was treated with 11 chemotherapeutic compounds, classified as DNA damaging agents, protein kinase inhibitors, anti-mitotic drugs, cell cycle specific inhibitors, protein synthesis inhibitors plus a compound of unknown category (Table 2). Dynamic and dose dependent cell-compound interaction patterns were characterized and summarized for all the tested cell lines and compounds. The profiles for three drugs, doxorubicin, olomoucine and paclitaxel against a panel of 12 different cell lines are presented in FIGS. 9, 10 and 11, respectively. In addition, we characterized the biological effect of these compounds on cells by monitoring cell cycle progression, cell viability and morphological status of the cells in an attempt to correlate specific cellular response to the shape of the cell index trace (FIGS. 12, 13 and 14). Furthermore we calculated the time-dependent IC-50 values for each compound against the various cell lines (FIG. 15) and developed an algorithm to calculate Cell Change Index to profile the dynamic cell response of the different chemotherapeutic agents across the different cell lines. Cell Change Index was calculated for the dynamic RT-CES responses of different cell lines to different chemotherapeutic agents using the definitions described above. Based on the time-dependent values of CCI, each CCI value region across the time scale is represented by black-white shading-based coding. […]

[2] = test system: NK-92-mediated cytolysis of A549 cells; assay: Inhibition of NK-mediated cytolysis of target cells by signaling pathway inhibitors (RT-CES); assay type: cell-based, human; details: NK-92 pre-incubated with inhibitor, E/T 16:1
Description: FIG. 31. Specificity of NK-92 mediated cytolysis of target cells. (A) A549 cells were seeded in the wells of E-plates. Twenty four hours after seeding NK-cells at a density of 16:1 (E/T ratio) were pre-incubated with the different concentrations of the MEK inhibitor PD 98059 for thirty minutes and then added to A549 cells at the indicated time point (arrow). The viability of A549 cells were continually monitored using the RT-CES system. (B) The extent of NK-92 mediated cytolystic activity in the presence of MEK inhibitor was calculated at the indicated times post-NK addition as described in materials and methods section. (C) The effect of P13 Kinase inhibitor Wortmannin on NK-92 mediated cytolysis of A549 cells. […] (D) Percent cytolytic activity of NK-92 cells was calculated at the end of the experiment described in (C).
In this example, a microelectronic sensor-based platform, the RT-CES (real time electronic sensing) system, is introduced for label free assessment of natural killer (NK) cell-mediated cytolytic activity. The RT-CES system was used to dynamically and quantitatively monitor NK-mediated cytolysis of 9 different target cell lines, including cancer cell lines commonly used in laboratories. […] Cell growth was dynamically monitored using the RT-CES system for a period of 24-34 hours, depending on the experiment until they reached log growth phase and formed a monolayer. […]

A549 cells [3] = assay type: cell-based; details: for effect of inhibitor alone on A549 baseline: A549 target cells without NK cells
Description: (§1) In order to observe the kinetics of drug interaction with target cells, A549 non-small lung cancer cells were seeded in ACEA 96× e-plate™ and continuously monitored until the cells reached the log growth phase at which point different concentrations of paclitaxel were added to the cells at the indicated final concentration. […] Remarkably, the cells recover from the initial cytotoxic effect of the drug and start to re-proliferate. While it remains to be determined if this phenomenon is due to metabolism and inactivation of paclitaxel or due to the emergence of paclitaxel-resistant subpopulation, this experiment clearly exemplifies the tremendous advantage of real-time measurement which is offered by the RT-CES system and allows the user to the opportunity to observe and assess the entire history of drug interaction with the target cells which provides further information in addition to cell viability or cytotoxicity. The phenomenon observed in FIG. 20A would've been easily missed by traditional single-point assays such as MTT.
Yet another major advantage of using the RT-CES system to continually monitor the interaction of drugs with target cells is that the user can obtain insight into the mechanism of action of the drug of interest. […] The cells were treated with either DMSO as the vehicle control or with 100 μM Olomoucine which is a CDK inhibitor and induces cell cycle arrest either at G1→S transition or at the G2→M transition, depending on the cell line. […] The control cells treated with DMSO continue to proliferate until they reach confluence, at which time they are contact inhibited and the Cell Index recording levels off. […]. Taken together, using the RT-CES system to dynamically monitor drug interaction with the target cells offers the user the opportunity to understand the mechanism of drug action and its mode of interaction with the target cell.

H460 cells = assay: RT-CES time-dependent cell index of drug-treated H460 cells; assay type: cell-based, human
Description: The device was positioned on a device station that was located in an incubator maintaining conditions of 37 degrees C. and 5% CO2. […] The cell-substrate impedance monitoring system calculated the cell index at each time point monitored and plotted the cell index as a function of time.
The device was positioned on a device station that was located in an incubator maintaining conditions of 37 degrees C. and 5% CO2.

A549 cells [4] = assay: Annexin V staining of A549 cells; assay type: cell-based, Human; details: 12.5 nM for 20 hours
Description: FIG. 20. Dynamic monitoring of drug interaction with target cells using a cell-substrate imepdnace monitoring system of the presnet invention. (A) A549 cells were seeded in a device of present invention at a density of 10,000 cells per well and the cells were continuously monitored up to 24 hours at which point paclitaxel was added at the indicated final concentrations. (B) Annexin V staining of A549 cells treated with DMSO or 12.5 nM paclitaxel for 20 hours.
as §1, with “The phenomenon observed in FIG. 20A would've been easily missed by traditional single-point assays such as MTT.” left out

A549 cells [5] = assay: Flow cytometry cell cycle analysis of A549 cells; assay type: cell-based, Human; details: 100 μM
Cos-7 cells = assay: RT-CES monitoring of morphological changes in Cos-7 cells; assay type: cell-based; details: serum starved Cos-7 cells; 50 nanograms/mL
Description: Cells were seeded in wells of a 16 well monitoring device (16× E-Plate) of the present invention that engaged a device station of a cell-substate monitoring system. The device station was positioned in an incubator held at 37 degrees C. and 5% CO2. The cells were serum starved for 8 hours and then stimulated with 50 nanograms/mL of EGF. […] Impedance was monitored at 3 minute intervals for 2 hours and then at 1 hour intervals for 14 hours. The cell index was calculated by the system and plotted as a function of time. […] The arrow indicates the point of EGF addition.

## COc1cccc2c1C(=O)c1c(O)c3c(c(O)c1C2=O)C[C@@](O)(C(=O)CO)C[C@@H]3O[C@H]1C[C@H](N)[C@H](O)[C@H](C)O1 [doxorubicin]
[1]; 3.13 uM, most cell types tested, depending on cell type
  time after treatment at which cell index reached a peak and started decreasing: 10 to 20 h

## COc1cccc(-c2cc(=O)c3ccccc3o2)c1N [PD98059]
[2]
  inhibition of NK-92-mediated cytolysis of A549 cells: dose-dependently inhibited
A549 cells [3]
  effect of inhibitor alone on A549 baseline: minimal effect on the baseline

## CC[C@]1(O)C[C@@H]2CN(CCc3c([nH]c4ccccc34)[C@@](C(=O)OC)(c3cc4c(cc3OC)N(C)[C@H]3[C@@](O)(C(=O)OC)[C@H](OC(C)=O)[C@]5(CC)C=CCN6CC[C@]43[C@@H]65)C2)C1 [vinblastin]
[1]
  cell index curve pattern: going down and then going up

## COC[C@H]1OC(=O)c2coc3c2[C@@]1(C)C1=C(C3=O)[C@@H]2CCC(=O)[C@@]2(C)C[C@H]1OC(C)=O [Wortmannin]
[2]
  inhibition of NK-92-mediated cytolysis of A549 cells: dose-dependently inhibited
A549 cells [3]
  effect of inhibitor alone on A549 baseline: minimal effect on the baseline

## CC(=O)O[C@H]1C(=O)[C@@]2(C)[C@H]([C@H](OC(=O)c3ccccc3)[C@]3(O)C[C@H](OC(=O)[C@H](O)[C@@H](NC(=O)c4ccccc4)c4ccccc4)C(C)=C1C3(C)C)[C@]1(OC(C)=O)CO[C@@H]1C[C@@H]2O [paclitaxel]
H460 cells; 33 nM
  time over which cell index exhibited a near-constant value: about 15 hours
H460 cells; concentration between 67 nM and 500 nM
  cell index change after compound addition: gradual decrease in cell index
A549 cells [4]
  Annexin V staining: cell death
[1]; 0.78-12.5 nM
  duration of initial decrease in cell index: 15 to 20 h
[1]; nM concentration, varies between cell types
  duration of initial cell index decrease before cell index increase: about 15 hrs
A549 cells [3]; human
  effect on A549 cell index: initially induces a cytotoxic effect

## CN[C@H]1CCc2cc(OC)c(OC)c(OC)c2-c2ccc(OC)c(=O)cc21 [colcemid]
[1]
  cell index curve pattern: going down and then going up

## Cn1cnc2c(NCc3ccccc3)nc(NCCO)nc21 [olomoucine]
A549 cells [5]
  cell cycle analysis by flow cytometry: cell cycle arrest at the G2→M transition
[1]; 100 uM, significant number of cell types tested, for some length of time (10, 20 or 30 hrs)
  cell index response: near-constant cell index
A549 cells [3]; exponentially growing A549 cells, 100 μM
  Cell Index trace: level off and remain in a steady state

## CC[C@H](CO)Nc1nc(NCc2ccccc2)c2ncn(C(C)C)c2n1 [roscovitine]
[1]
  cell index curve pattern: near-constant

## O=c1[nH]cc(F)c(=O)[nH]1 [5-Fluorouracil]
[1]
  cell index curve pattern: going up first and then going down

## epidermal growth factor [EGF]
Cos-7 cells
  cell index response (morphological change): initial jump in cell index
